Test results reported in ChEMBL document CHEMBL5241127, “Design, synthesis and biological evaluation of novel 9-N-substituted-13-alkylberberine derivatives from Chinese medicine as anti-hepatocellular carcinoma agents” (Bioorg Med Chem, 2023).
Values belong to the compound of their own block, whether it stands above or below them. Calls of active or inactive are those of the source. The calls are words filed in the database; no cut-off is given here.

Key:
[1] = system: HepG2; assay: Antiproliferative activity against human HepG2 cells assessed as inhibition of cell growth incubated for 72 hrs by MTT assay; assay type: functional, cell-based; settings: HepG2, 72 h
[2] = system: H22; assay: Antitumor activity against […] xenografted in ICR mouse assessed as inhibition of tumor growth at 20 mg/kg, iv administered for 21 days and measured every 2 days relative to control; assay type: functional; settings: H22, 504 h, time 21 day, read-out: TGI
[3] = system: Quadruplex DNA; assay: Binding affinity to c-MYC G4-quadruplex DNA (unknown origin) using fluorescent tagged FPu18T model assessed as stabilization by measuring change in melting temperature at 2 uM by fluorescence based analysis; assay type: nucleic-acid assay
[4] = system: Quadruplex DNA; assay: Stabilization of c-MYC G4-quadruplex DNA in human HepG2 cells assessed as BG4 foci formation at 0.3 uM incubated for 72 hrs by confocal laser scanning microscope based analysis; assay type: cell-based
[5] = system: HepG2; assay: Induction of apoptosis in human HepG2 cells assessed as increase in total apoptotic cells at 0.15 to 0.6 uM incubated for 72 hrs by AnnexinV-FITC/propidium iodide staining based flow cytometry (reference value: 4.1%); assay type: functional; settings: dose 0.15-0.6 µM
[6] = system: H22; assay: Antitumor activity against […] xenografted in ICR mouse assessed as reduction in tumor weight administered intravenously for 21 days; assay type: functional, cell-based; settings: dose 10-20 mg/kg, route iv, time 21.0 day
[7] = system: HepG2; assay: Downregulation of p-PI3K protein expression in human HepG2 cells incubated for 72 hrs by Western blot analysis; assay type: functional, cell-based; settings: dose 0-0.6 µM
[8] = system: HepG2; assay: Effect on AKT total protein level in human HepG2 cells at 0 to 0.6 uM incubated for 72 hrs by Western blot analysis; assay type: functional, cell-based; settings: dose 0-0.6 µM
[9] = MRT (0 to t) in Sprague-Dawley rat at 1 mg/kg, iv measured for 24 hrs by LC-MS/MS analysis; assay type: ADME, organism-based; settings: in vivo
[10] = Toxicity in ICR mouse xenografted with […] H22 cells assessed as abnormalities in heart at 20 mg/kg, iv administered for 21 days; assay type: organism-based; settings: in vivo, 504 h, time 21 day
[11] = system: Hep 3B2; assay: Antiproliferative activity against human Hep3B cells assessed as inhibition of cell growth incubated for 72 hrs by MTT assay; assay type: functional, cell-based
[12] = AUC (0 to t) in Sprague-Dawley rat at 1 mg/kg, iv measured for 24 hrs by LC-MS/MS analysis; assay type: ADME, organism-based; parameters: dose 1 mg/kg, time 24 hrs, route iv; settings: in vivo
[13] = system: Quadruplex DNA; assay: Binding affinity to c-MYC G4-quadruplex DNA (unknown origin) using fluorescent tagged FPu18T model assessed as stabilization by measuring change in melting temperature at 2 uM incubated in presence of non-fluorescent ds26 DNA by fluorescence based analysis; assay type: nucleic-acid assay
[14] = system: HepG2; assay: Induction of cell cycle arrest in human HepG2 cells assessed as accumulation of cells at S phase at 0.15 to 0.6 uM incubated for 72 hrs by RNaseA/PI staining based flow cytometry analysis (reference value: 35.98%); assay type: functional; settings: dose 0.15-0.6 µM
[15] = system: SK-HEP1; assay: Antiproliferative activity against human SK-HEP1 cells assessed as inhibition of cell growth incubated for 72 hrs by MTT assay; assay type: functional, cell-based; settings: SK-HEP1, 72 h
[16] = system: Quadruplex DNA; assay: Stabilization of c-MYC G4-quadruplex DNA in human HepG2 cells assessed as downregulation of c-myc expression incubated for 72 hrs by Western blot analysis; assay type: cell-based; settings: dose 0.15-0.6 µM
[17] = Toxicity in ICR mouse xenografted with […] H22 cells assessed as abnormalities in lung at 20 mg/kg, iv administered for 21 days; assay type: organism-based; settings: in vivo, 504 h, time 21 day
[18] = system: HepG2; assay: Induction of apoptosis in human HepG2 cells assessed as increase in Bax protein expression incubated for 72 hrs by Western blot analysis; assay type: functional, cell-based; settings: dose 0.15-0.6 µM
[19] = system: HepG2; assay: Induction of G2/M phase cell cycle arrest in human HepG2 cells assessed as downregulation of cdc2 protein expression incubated for 72 hrs by Western blot analysis; assay type: functional, cell-based; settings: dose 0.15-0.6 µM
[20] = system: HepG2; assay: Induction of cell cycle arrest in human HepG2 cells assessed as accumulation of cells at G2 phase at 0.15 to 0.6 uM incubated for 72 hrs by RNaseA/PI staining based flow cytometry analysis (reference value: 12.99%); assay type: functional; settings: dose 0.15-0.6 µM
[21] = system: HepG2; assay: Induction of mitochondrial dysfunction in human HepG2 cells assessed as increase in cells with collapsed mitochondrial membrane potential at 0.15 to 0.6 uM incubated for 72 hrs by JC-1 staining based flow cytometry analysis (reference value: 4.84%); assay type: functional; settings: dose 0.15-0.6 µM
[22] = system: DNA; assay: Binding affinity to duplex DNA (unknown origin) using fluorescent tagged F10T model assessed as stabilization by measuring change in melting temperature at 2 uM by fluorescence based analysis; assay type: nucleic-acid assay
[23] = Toxicity in ICR mouse xenografted with […] H22 cells assessed as reduction in body weight at 10 to 20 mg/kg, iv administered for 21 days and measured every 2 days; assay type: organism-based; settings: in vivo, 504 h, dose 10-20 mg/kg, time 21 day
[24] = system: HepG2; assay: Antiproliferative activity against cisplatin-resistant human HepG2 cells assessed as inhibition of cell growth incubated for 72 hrs by MTT assay; assay type: functional, cell-based; settings: HepG2, 72 h
[25] = system: HepG2; assay: Potency index, ratio of cisplatin IC50 to test compound IC50 for antiproliferative activity against cisplatin-resistant human HepG2 cells assessed as inhibition of cell growth incubated for 72 hrs by MTT assay; assay type: functional
[26] = system: HepG2; assay: Potency index, ratio of cisplatin IC50 to test compound IC50 for antiproliferative activity against human HepG2 cells assessed as inhibition of cell growth incubated for 72 hrs by MTT assay; assay type: functional
[27] = system: HepG2; assay: Induction of ROS production in human HepG2 cells assessed as increase in ROS positive cells at 0.06 uM preincubated with ROS scavenger, NAC followed by compound addition and further incubated for 72 hrs by DCF-DA staining based flow cytometry analysis (reference value: 4.21%); assay type: functional
[28] = system: HepG2; assay: Induction of apoptosis in human HepG2 cells assessed as increase in cleaved caspase 3 expression incubated for 72 hrs by Western blot analysis; assay type: functional, cell-based; settings: dose 0.15-0.6 µM
[29] = system: Huh-7; assay: Antiproliferative activity against human Huh-7 cells assessed as inhibition of cell growth incubated for 72 hrs by MTT assay; assay type: functional, cell-based; settings: Huh-7, 72 h
[30] = Toxicity in ICR mouse xenografted with […] H22 cells assessed as abnormalities in spleen at 20 mg/kg, iv administered for 21 days; assay type: organism-based; settings: in vivo, 504 h, time 21 day
[31] = system: Quadruplex DNA; assay: Stabilization of c-MYC G4-quadruplex DNA in human HepG2 cells assessed as colocalization with BG4 in G4-forming region at 0.3 uM incubated for 72 hrs by confocal laser scanning microscope based analysis; assay type: cell-based
[32] = system: H22; assay: Antitumor activity against […] xenografted in ICR mouse assessed as reduction in tumor volume administered intravenously for 21 days and measured every 2 days; assay type: functional, cell-based; settings: dose 10-20 mg/kg, route iv, time 21.0 day
[33] = Toxicity in ICR mouse xenografted with […] H22 cells assessed as abnormalities in kidney at 20 mg/kg, iv administered for 21 days; assay type: organism-based; settings: in vivo, 504 h, time 21 day
[34] = Antiproliferative activity against human LX2 cells assessed as inhibition of cell growth incubated for 72 hrs by MTT assay; assay type: functional, cell-based; settings: LX-2, 72 h
[35] = Drug concentration in Sprague-Dawley rat plasma at 1 mg/kg, iv measured after 5 mins by LC-MS/MS analysis; assay type: ADME, organism-based
[36] = Clearance in Sprague-Dawley rat at 1 mg/kg, iv measured for 24 hrs by LC-MS/MS analysis; assay type: ADME, organism-based; settings: in vivo
[37] = system: HepG2; assay: Induction of ROS production in human HepG2 cells assessed as increase in ROS positive cells at 0 to 0.60 uM incubated for 72 hrs by DCF-DA staining based flow cytometry analysis (reference value: 4.21%); assay type: functional; settings: dose 0-0.6 µM
[38] = system: HepG2; assay: Induction of apoptosis in human HepG2 cells assessed as reduction in Bcl-2 protein expression at […] incubated for 72 hrs by Western blot analysis; assay type: functional, cell-based; settings: dose lower 0.15 µM
[39] = Half life in Sprague-Dawley rat at 1 mg/kg, iv measured for 24 hrs by LC-MS/MS analysis; assay type: ADME, organism-based; settings: in vivo
[40] = Toxicity in ICR mouse xenografted with […] H22 cells assessed as abnormalities in liver at 20 mg/kg, iv administered for 21 days; assay type: organism-based; settings: in vivo, 504 h, time 21 day
[41] = system: HepG2; assay: Induction of G2/M phase cell cycle arrest in human HepG2 cells assessed as upregulation of p-cdc25c protein expression incubated for 72 hrs by Western blot analysis; assay type: functional, cell-based; settings: dose 0.15-0.6 µM
[42] = system: HepG2; assay: Induction of apoptosis in human HepG2 cells assessed as increase in cytochrome C protein expression incubated for 72 hrs by Western blot analysis; assay type: functional, cell-based; settings: dose 0.15-0.6 µM
[43] = Initial plasma concentration in Sprague-Dawley rat at 1 mg/kg, iv by LC-MS/MS analysis; assay type: ADME, organism-based
[44] = system: HepG2; assay: Downregulation of p-AKT protein expression in human HepG2 cells incubated for 72 hrs by Western blot analysis; assay type: functional, cell-based; settings: dose 0-0.6 µM
[45] = system: H22; assay: Antitumor activity against […] xenografted in ICR mouse assessed as inhibition of tumor growth at 10 mg/kg, iv administered for 21 days and measured every 2 days relative to control; assay type: functional; settings: H22, 504 h, time 21 day, read-out: TGI
[46] = system: HepG2; assay: Effect on PI3K total protein level in human HepG2 cells at 0 to 0.6 uM incubated for 72 hrs by Western blot analysis; assay type: functional, cell-based; settings: dose 0-0.6 µM
[47] = system: HepG2; assay: Induction of G2/M phase cell cycle arrest in human HepG2 cells assessed as downregulation of cyclinB1 protein expression incubated for 72 hrs by Western blot analysis; assay type: functional, cell-based; settings: dose 0.15-0.6 µM

SMILES: CCCCCCCCc1c2[n+](cc3c(NCCCN)c(OC)ccc13)CCc1cc3c(cc1-2)OCO3
IC50 [1]: 7.18 µM

SMILES: CCCCCCCCc1c2[n+](cc3c(NCCN(C)C)c(OC)ccc13)CCc1cc3c(cc1-2)OCO3.[Cl-]
inhibition in vivo at 20 mg/kg [2]: 62.9%
ΔTm [3]: 21.4 °C
Activity [4]: Active
Activity [5]: 51.25%
Activity [6]: Dose-Dependent Effect
Activity [7]: Dose-Dependent Effect
Activity [8]: inactive
MRT last at 24 h [9]: 1.81 h
Activity [10]: Non-Toxic
IC50 [11]: 1.15 µM
AUC(0-t) at 24 h [12]: 674 ng·h/mL
ΔTm [13]: 20.9 °C
Activity [14]: 21.63%
IC50 [15]: 1.07 µM
Activity [16]: Dose-Dependent Effect
Activity [17]: Non-Toxic
Activity [18]: Dose-Dependent Effect
Activity [19]: Dose-Dependent Effect
Activity [20]: 27.61%
Activity [21]: 40.73%
ΔTm [22]: 0.2 °C
Activity [23]: Non-Toxic
IC50 [24]: 2.12 µM
Ratio IC50 [25]: >40
Ratio IC50 [26]: >10
Activity [27]: 3.67%
Activity [28]: Dose-Dependent Effect
IC50 [29]: 0.58 µM
Activity [30]: Non-Toxic
Activity [31]: Active
Activity [32]: Dose-Dependent Effect
Activity [33]: Non-Toxic
IC50 [34]: 8.62 µM
concentration at 5 min [35]: 758 ng/mL
clearance [36]: 21.7 mL/min/kg
Activity [37]: 52.48%
Activity [38]: Active
half-life [39]: 2.62 h
Activity [40]: Non-Toxic
IC50 [1]: 0.64 µM
Activity [41]: Dose-Dependent Effect
Activity [42]: Dose-Dependent Effect
C0 [43]: 872 ng/mL
Activity [44]: Dose-Dependent Effect
inhibition in vivo at 10 mg/kg [45]: 51.8%
Activity [46]: inactive
Activity [47]: Dose-Dependent Effect

SMILES: COc1ccc2cc3[n+](cc2c1OC)CCc1cc2c(cc1-3)OCO2 [BERBERINE]
inhibition in vivo at 20 mg/kg [2]: 42.3%
ΔTm [3]: 1.6 °C
IC50 [11]: > 50 µM
IC50 [15]: > 50 µM
ΔTm [22]: 2.1 °C
IC50 [24]: > 50 µM
IC50 [29]: > 50 µM
IC50 [34]: > 50 µM
IC50 [1]: > 50 µM

SMILES: CCCCCCCCc1c2[n+](c3c4c(c(OC)ccc14)N(CCN(C)C)C=C3)CCc1cc3c(cc1-2)OCO3
ΔTm [3]: 21.8 °C
ΔTm [13]: 21.1 °C
ΔTm [22]: 0.4 °C
IC50 [1]: 1.01 µM

Now from value to compound:

IC50 [1]: 2.42 µM
SMILES: CCCCCCc1c2[n+](cc3c(NCCN(C)C)c(OC)ccc13)CCc1cc3c(cc1-2)OCO3

ΔTm [3]: 23.1 °C
ΔTm [13]: 19.3 °C
ΔTm [22]: 1.8 °C
IC50 [1]: 1.37 µM
SMILES: CCCCCCCCc1c2[n+](cc3c(NCCCN4CCCC4)c(OC)ccc13)CCc1cc3c(cc1-2)OCO3

IC50 [1]: 1.24 µM
SMILES: CCCCCCCCCCCCc1c2[n+](cc3c(NCCN(C)C)c(OC)ccc13)CCc1cc3c(cc1-2)OCO3

IC50 [1]: 1.02 µM
SMILES: CCCCCCCCCCc1c2[n+](cc3c(NCCN(C)C)c(OC)ccc13)CCc1cc3c(cc1-2)OCO3
